{"source": "patent US11643413B2", "about": "“9-(2-oxacycloalkyl)-9H-purine-2,6-diamine derivatives and their use for the treatment of skin disorders” (UNIVERZITA PALACKEHO V OLOMOUCI, priority 2017, dated 2023)", "format_in_all_cases": "cell-based", "key": {"[1]": {"tested_on": "Escherichia coli WP2 uvrA strain", "test": "Ames test (Bacterial Reverse Mutation Test), E. coli", "conditions": "10-1000 μg per plate; without as well as with metabolic activation", "experimental": "(§1) The test substance was (114) assayed for the mutagenicity by the Bacterial Reverse Mutation Test. The performed test was based on EU method B.13/14 Mutagenicity—Reverse mutation test using bacteria, which is analogous to the OECD Test Guideline No. 471. Four indicator Salmonella typhimurium strains TA 98, TA 100, TA 1535, TA 1537 and one indicator Escherichia coli WP2 uvrA strain were used. The test substance was dissolved in dimethylsulfoxide (DMSO) and assayed in doses of 10-1000 μg per plate, which were applied to plates in volume of 0.1 mL. Experiments were performed without as well as with metabolic activation with a supernatant of rat liver and a mixture of cofactors. The working procedure described is in accordance with the documents Method B.13/14, Mutagenicity: Reverse Mutation Test Using Bacteria, Council Regulation (EC) No. 440/2008. Published in O.J. L 142, 2008 and OECD Test Guideline 471, Bacterial Reverse Mutation Test. Adopted Jul. 21, 1997. In the arrangement given above, the test substance was non-mutagenic for all the used tester strains without as well as with metabolic activation."}, "[2]": {"tested_on": "Salmonella typhimurium strains TA 98, TA 100, TA 1535, TA 1537", "test": "Ames test (Bacterial Reverse Mutation Test), Salmonella", "conditions": "10-1000 μg per plate; without as well as with metabolic activation", "experimental": "as §1"}, "[3]": {"tested_on": "human epidermal model EpiDerm™", "test": "In vitro skin irritation test, EpiDerm", "experimental": "Test substance was assayed for the in vitro skin irritation in human epidermal model EpiDerm™. The test was performed according to the Method B.46. In vitro skin irritation: Reconstructed human epidermis model test and Protocol for: In Vitro EpiDerm™ Skin Irritation Test For use with MatTek Corporation's Reconstructed Human Epidermal Model EPI-200-SIT (see par. 1.4, (1), (3)). Two types of extract were prepared by means of polar (water) as well as non-polar extractant (olive oil) according to directions given in ČSN EN ISO 10 993-12 (2012). After pre-incubation of tissues, 30 μl of an extract was placed directly atop to the tissue so it covered all tissue surfaces. Length of exposition was 60 minutes. Three tissues were used for the extract and for each control. The procedure was performed separately for each extract. After removal of extracts of the test substance from tissues, tissues were post incubated for 42 hours due to leave of damage reparation, followed by three hours incubation with MTT and two hours extraction period with shaking. Optical density (OD570) of isopropyl alcohol extracts was measured on a spectrophotometer. Relative cell viability was calculated for each tissue as % of the mean viability of the negative control tissues. Under the above-described experimental design, average viability of tissues treated by test substance water extract was 99.0% and by test substance olive oil extract 103.0%, i.e. viability was >50% in both cases. The effect of the test substance 114 was negative in EpiDerm™ model (tissues were not damaged). According to the classification criteria given in chapter 4.5, the test substance is considered to have no category in regard to skin irritation."}, "[4]": {"conditions": "60 minutes exposition, 42 hours post incubation, MTT, % of negative control"}}, "data": [{"smiles": "CN(C)c1nc(NCc2ccco2)c2ncn(C3CCCCO3)c2n1", "note": "(stereo not drawn) [Compound 114, 2-(Dimethylamino)-6-furfurylamino-9-(tetrahydro-2H-pyran-2-yl)-9H-purine]", "values": [{"measurement": "mutagenicity", "setting": "[1]", "value": "non-mutagenic"}, {"measurement": "mutagenicity", "setting": "[2]", "value": "non-mutagenic"}, {"measurement": "skin irritation classification", "setting": "[3]", "value": "no category"}, {"measurement": "average viability of tissues, olive oil extract", "setting": "[3]; [4]", "value": 103.0, "unit": "%"}, {"measurement": "average viability of tissues, water extract", "setting": "[3]; [4]", "value": 99.0, "unit": "%"}, {"measurement": "effect in EpiDerm model", "setting": "[3]; water and olive oil extracts", "value": "negative"}]}]}
